Patent US20240350454A1, “BACTERIAL EFFLUX PUMP INHIBITORS AND METHODS OF USE” (THE REGENTS OF THE UNIVERSITY OF COLORADO, priority 2021, published 2024)

Experiments:
Format in all cases: cell-based
E. coli BAA-2340 [1] = experiment: Chloramphenicol MIC with selected compound in MHB; conditions: Escherichia coli, BAA2340, antibiotic alone (row None), MHB
Protocol: (§1) MIC for the antibiotic alone (i.e., in the absence of the disclosed compounds) is provided in the first row labeled “None”. […] […] At this concentration (50 μg/mL), the compounds of the disclosure lacked intrinsic antibacterial activity but a significant improvement in efficacy was still observed. Thus, the compounds of the disclosure may be used to potentiate the activity of antibiotics that have lost their efficacy due to efflux.

[2] = system: P. aeruginosa Focus MB0477; experiment: Chloramphenicol MIC with selected compound in MHB; conditions: Pseudomonas aeruginosa, FOCUSMB0477, antibiotic alone (row None), MHB
Protocol: as §1

A. baumannii MB306 = experiment: Chloramphenicol MIC with selected compound in MHB; conditions: Acinetobacter baumannii, antibiotic alone (row None), MHB
Excerpt: (§2) MIC for the antibiotic alone (i.e., in the absence of the disclosed compounds) is provided in the first row labeled “None”. […] […] […] Thus, the compounds of the disclosure may be used to potentiate the activity of antibiotics that have lost their efficacy due to efflux.

K. pneumoniae BAA-2342 [3] = experiment: Chloramphenicol MIC with selected compound in MHB; conditions: Klebsiella pneumoniae, BAA2342, antibiotic alone (row None), MHB
Excerpt: as §2

A. baumannii MB309 = experiment: Chloramphenicol MIC with selected compound in MHB; conditions: Acinetobacter baumannii, antibiotic alone (row None), MHB
Excerpt: as §2

E. cloacae BAA-2341 [4] = experiment: Chloramphenicol MIC with selected compound in MHB; conditions: Enterobacter cloacae, BAA2341, antibiotic alone (row None), MHB
Excerpt: as §2

K. pneumoniae BAA-1705 [5] = experiment: Ciprofloxacin MIC with selected compound in MHB; conditions: Klebsiella pneumoniae, BAA1705, read-out: Ciprofloxacin MIC, antibiotic alone (row None), MHB
Protocol: as §1

[6] = system: S. enterica serovar Typhimurium SL1344 sifB::gfp in RAW264.7 macrophages; experiment: SAFIRE assay, intracellular bacterial load in macrophages; conditions: Salmonella enterica
Protocol: The following experiments were performed using the SAFIRE assay described in U.S. Publication 2020/0022961, which is incorporated by reference in its entirety for all purposes. SAFIRE (Screen for Anti-infectives using Fluorescence microscopy of IntracellulaR Enterobacteriaceae) uses cell culture as a surrogate to identify compounds that prevent intracellular replication of a model Gram-negative bacterial human pathogen. The method identifies compounds that prevent bacterial growth in broth culture and compounds that decrease the load of Gram-negative bacteria inside of macrophages at concentrations≤10 μM but have no effect on bacterial growth in standard Mueller Hinton broth (MHB) at 100 μM. Thus, SAFIRE enables the discovery of compounds that are effective against Gram-negative bacteria in host cells and in whole animals, whether or not they are antibacterial in broth.
(§3) The wild-type S. enterica serovar Typhimurium strain, SL1344, was initially isolated from the blood of an infected calf. For screening and validation in macrophages, SL1344 sifB::gfp was grown in Luria-Bertani Broth (LB) with 30 μg/ml streptomycin and 30 μg/ml kanamycin to saturation overnight, diluted to an OD of 0.001 and frozen in 100 μL aliquots in 20% glycerol at −80° C. Prior to infection, aliquots were grown in 5 mL cultures of LB with 30 μg/ml streptomycin and 30 μg/ml kanamycin for 18 hours at 37° C. with aeration. Bacterial strains were routinely grown in LB with antibiotics: 30 μg/ml streptomycin, 30 μg/ml kanamycin, 50 μg/ml ampicillin, 10 μg/ml tetracycline, and/or 1.15 μg/ml meropenem. The acrAB::kan and macAB::kan strains were constructed according to known methods. S. enterica subsp. enterica, serovar Typhimurium strain S10801, NR-22067 is a multidrug resistant isolate from a calf with sepsis. This strain and others as indicated were obtained through BEI resources, NIAID, NIH.
(§4) Murine macrophage-like RAW 264.7 cells and HeLa human epithelial cells were obtained from the American Type Tissue Collection. BMDMs were isolated as previously described. Briefly, marrow was flushed from the femurs of 1- to 4-month-old 129SvEvTac mice (Taconic Laboratories) bred in-house. Mononuclear cells were separated using Histopaque-1083 (Sigma), washed, and directly seeded into assay plates at 1×10^5 cells/ml in complete medium supplemented with 35% conditioned media from 3T3 cells expressing MCSF. Media were refreshed three days later. After 1 week, media were replaced with 100 μL fresh media and cells were infected as described below. All three types of cells were grown in DMEM high glucose (Sigma) supplemented with 10% fetal bovine serum, 2 mM L-glutamine, 1 mM sodium pyruvate, 10 mM HEPES, and 50 μMβ-mercaptoethanol. Cells were maintained in a 5% CO2 humidified atmosphere at 37° C. For screening, frozen aliquots of RAW 264.7 were thawed and allowed to expand for three days prior to seeding; other experiments were performed with cultures between passages four and 20.
SAFIRE—RAW264.7 macrophages (7×103 in 40 μL or 5×104 in 100 μL) were seeded, respectively, in 384- or 96-well black-walled glass-bottomed plates (Brooks Automation). Twenty four hours post-seeding, bacteria in 20 or 50 μL PBS were added to a final concentration of 1×10^7 CFU/mL, conditions yielding infection of approximately 70% of macrophages at 18 hours post-infection with minimal macrophage toxicity. The sifB::gfp bacterial reporter strain was used to minimize green signal from extracellular bacteria. […] At two hours post-infection, 200 or 500 nL compound was added using a pin tool (CyBio) to yield a final concentration of 25 μM. Each assay plate included rifampicin and DMSO controls. In some experiments, media were removed and replaced with fresh media containing 40 μg/mL gentamicin and increasing concentrations of the compounds of the disclosure. […]

RAW264.7 macrophages = conditions: mouse, 16 h
Excerpt: as §4
SAFIRE—RAW264.7 macrophages (7×103 in 40 μL or 5×104 in 100 μL) were seeded, respectively, in 384- or 96-well black-walled glass-bottomed plates (Brooks Automation). Twenty four hours post-seeding, bacteria in 20 or 50 μL PBS were added to a final concentration of 1×10^7 CFU/mL, conditions yielding infection of approximately 70% of macrophages at 18 hours post-infection with minimal macrophage toxicity. The sifB::gfp bacterial reporter strain was used to minimize green signal from extracellular bacteria. […] At two hours post-infection, 200 or 500 nL compound was added using a pin tool (CyBio) to yield a final concentration of 25 μM. Each assay plate included rifampicin and DMSO controls. In some experiments, media were removed and replaced with fresh media containing 40 μg/mL gentamicin and increasing concentrations of the compounds of the disclosure. At 17.5 hours post-infection, PBS containing MitoTracker Red CMXRos (Life Technologies) was added to a final concentration of 300 nM or 100 nM, for 384- or 96-well, respectively. Thirty minutes later, 16% paraformaldehyde was added to a final concentration of […] and incubated at room temperature for 15 minutes. Wells were washed twice with PBS and stained for 20 minutes with 1 μMDAPI; wells were washed twice and stored in 90% glycerol in PBS until imaging. The Z′-factor of the screening platform was 0.59 and 0.48 in 96-well and 384-well plates, respectively, within published ranges for complicated cell-based screens.
In addition, toxicity was measured according the following procedure: 1) analyzing macrophage cell morphology; and 2) using MATLAB to count cells (cells that lift up and float after treatment are not within the appropriate Z plane to be counted, and thus are considered dead). If 70% of the cells are adherent (as measured by comparing the number of cells before and after treatment), the compound is considered not toxic. Compounds that pass #1 and #2 above are considered to have a toxicity “>50 μM”. […]

E. Cloacae MB315 = experiment: PMB MIC with selected compound in MHB; conditions: Enterobacter cloacae, selected compound 50 μg/mL in MHB
Protocol: as §1

E. cloacae BAA-2341 [7] = experiment: Doxycycline MIC with selected compound in MHB; conditions: Enterobacter cloacae, BAA2341, antibiotic alone (row None), MHB
Protocol: as §1

K. pneumoniae BAA-2342 [8] = experiment: Doxycycline MIC with selected compound in MHB; conditions: Klebsiella pneumoniae, BAA2342, antibiotic alone (row None), MHB
Excerpt: as §2

K. pneumoniae BAA-1705 [9] = experiment: Doxycycline MIC with selected compound in MHB; conditions: Klebsiella pneumoniae, BAA1705, antibiotic alone (row None), MHB
Excerpt: as §2

E. coli BAA-2340 [10] = experiment: Doxycycline MIC with selected compound in MHB; conditions: Escherichia coli, BAA2340, antibiotic alone (row None), MHB
Excerpt: as §2

[11] = system: S. enterica sp. Enterica S10801; experiment: Doxycycline MIC with selected compound in MHB; conditions: Salmonella enterica, antibiotic alone (row None), MHB
Protocol: as §3
MIC for the antibiotic alone (i.e., in the absence of the disclosed compounds) is provided in the first row labeled “None”. […] At this concentration (50 μg/mL), the compounds of the disclosure lacked intrinsic antibacterial activity but a significant improvement in efficacy was still observed. […]

SMILES	IC50 [6] [nM]	Toxicity (RAW264.7 macrophages)	MIC (E. Cloacae MB315) [µg/mL]	other results
O=C(N[C@H](CO)[C@H](O)c1ccc([N+](=O)[O-])cc1)C(Cl)Cl [Chloramphenicol, chloramphenicol]				MIC (E. coli BAA-2340 [1]): 64 µg/mL; MIC [2]: 64 µg/mL; MIC (A. baumannii MB306): > 64 µg/mL; MIC (K. pneumoniae BAA-2342 [3]): 64 µg/mL; MIC (A. baumannii MB309): > 64 µg/mL; MIC (E. cloacae BAA-2341 [4]): 16 µg/mL
O=C(O)c1cn(C2CC2)c2cc(N3CCNCC3)c(F)cc2c1=O [Ciprofloxacin, ciprofloxacin]				MIC (K. pneumoniae BAA-1705 [5]): > 64 µg/mL
NC1CCN(CC(O)COc2ccc(Cl)c(Cl)c2)C1 (centres unmarked) [Compound 1]	< 1000	>50 µM	32	
NC1CCN(C[C@H](O)COc2ccc(Cl)c(Cl)c2)C1 (some centres unmarked) [Compound 2]	< 1000	>50 µM		
NC1CCN(C[C@@H](O)COc2ccc(Cl)c(Cl)c2)C1 (some centres unmarked) [Compound 3]	< 1000	>50 µM	32	
NC1CCN(CC(O)COc2ccc(Cl)c(Cl)c2)CC1 (centres unmarked) [Compound 4]	< 1000	<25 µM	16	
OC(COc1ccc(Cl)c(Cl)c1)CN1CCC(n2ccnc2)CC1 (centres unmarked) [Compound 5]	< 1000	>50 µM		
NC1CCN(CC(O)COc2ccc(Cl)cc2)CC1 (centres unmarked) [Compound 6]	< 1000	>50 µM		
NC1CCN(CC(O)COc2ccc(Cl)cc2Cl)CC1 (centres unmarked) [Compound 7]	< 1000	<50 but >25 μM	32	
NC1CCN(CC(O)COc2c(Cl)cccc2Cl)CC1 (centres unmarked) [Compound 8]	< 1000	>50 µM		
N[C@@H]1CCN(CC(O)COc2ccc(Cl)c(Cl)c2)C1 (some centres unmarked) [Compound 9]	< 1000	>50 µM		
NCC1CCN(CC(O)COc2cc(Cl)cc(Cl)c2)C1 (centres unmarked) [Compound 10]	< 1000	<50 but >25 μM	32	
COCCCN(C)C1CCN(CC(O)COc2ccc(Cl)c(Cl)c2)CC1 (centres unmarked) [Compound 11]	< 1000	>50 µM		
NC1CCN(CC(O)COc2cccc(C(F)(F)F)c2)CC1 (centres unmarked) [Compound 12]	< 1000	>50 µM		
N[C@@H]1CCN(C[C@H](O)COc2ccc(Cl)c(Cl)c2)C1 [Compound 13]	< 1000	>50 µM		
N[C@H]1CCN(C[C@H](O)COc2ccc(Cl)c(Cl)c2)C1 [Compound 14]	> 1000	>50 µM		
N[C@@H]1CCN(C[C@@H](O)COc2ccc(Cl)c(Cl)c2)C1 [Compound 15]	< 1000	>50 µM		
N[C@H]1CCN(C[C@@H](O)COc2ccc(Cl)c(Cl)c2)C1 [Compound 16]	< 1000	>50 µM	32	
CC1(N)CCN(CC(O)COc2cc(Cl)cc(Cl)c2)CC1 (centres unmarked) [Compound 17]	< 1000	<25 µM	16	
OC(CN[C@H]1[C@@H]2CNC[C@@H]21)COc1cc(Cl)cc(Cl)c1 (some centres unmarked) [Compound 18]	< 1000	>50 µM	1	
CN(CCCCN)CC(O)COc1cc(Cl)cc(Cl)c1 (centres unmarked) [Compound 19]	< 1000	<50 but >25 μM	32	
C[C@H]1c2cccc(O)c2C(=O)C2=C(O)[C@]3(O)C(=O)C(C(N)=O)=C(O)[C@@H](N(C)C)[C@@H]3[C@@H](O)[C@@H]21 [Doxycycline, doxycycline]				MIC (E. cloacae BAA-2341 [7]): 8 µg/mL; MIC (K. pneumoniae BAA-2342 [8]): 8 µg/mL; MIC (K. pneumoniae BAA-1705 [9]): 4 µg/mL; MIC (E. coli BAA-2340 [10]): 8 µg/mL; MIC [11]: 32 µg/mL
